# Key:
# [1] = niacin 1500 mg (roughly equimolar dose); niacin was no arm of the trial; cited from earlier work
# high fat-fed hamsters [2] = experiment: Plasma glucose in high fat-fed hamsters dosed 18 days; assay type: in vivo, Golden Syrian hamster; details: ARI-001 1120 and 2240 mg/kg
# Description: These animals were dosed for 18 consecutive days, while being on a HF/HS diet for a total of nearly 5 weeks. We also examined the glucose levels in the plasma of these animals. For pharmacokinetic studies, we utilized wild type mice for both single and repeated administration study. Finally, pharmacokinetic studies were corroborated by data from single and repeated administration to monkeys.
# [3] = Pharmacokinetics of multiple administrations of ARI-001 to fasted monkeys; assay type: in vivo, Macaque monkeys; details: 288 mg/kg oral gavage once per day, seven days
# Description: ARI-001 was administered to monkeys via oral gavage once per day for a total of seven days. Blood samples were collected after the first and after the last administrations to measure plasma concentrations of ARI-001.
# [4] = Single-dose pharmacokinetic study of ARI-001 in wild type mice (PO, IP); assay type: in vivo, C57BL/6 mice; details: oral gavage or intraperitoneal injection
# Description: Plasma from the 19 hamsters dosed with ARI-001 in the above described 18-day study was analyzed for concentrations of ARI-001. Concentrations were determined for these samples, which were collected 24 hours after the final dose was administered. Briefly, plasma drug concentrations for the non-GLP pharmacokinetic experiments were determined by LC-MS using an Applied Biosystems 4000Qtrap spectrometer with electrospray ionization. Samples were prepared for analysis by precipitation of plasma proteins with cold methanol. HPLC of the samples was done with an Agilent Eclipse C18 column and a methanol/water gradient containing 0.1% formic acid and 5 mM ammonium acetate. ARI-001 was detected using multiple reaction monitoring (MRM) in the positive ion mode. For quantitation, a standard curve was measured by addition of known amounts of ARI-001 to plasma from untreated animals and preparing in a manner identical to the samples from treated animals. […] Pearson r values were determined using all data points, as was the two-tailed P-value for the data set.
# Wild type C57BL/6 mice were dosed with a single administration of ARI-001 in solution either via oral gavage (PO) or via intraperitoneal injection (IP). Blood samples were then collected at various time points over a 24-hour period; plasma was then analyzed for concentrations of ARI-001 as described earlier. […]
# [5] = ARI-001 concentrations in liver and adipose tissue vs plasma; assay type: in vivo, Golden Syrian hamster; details: HF/HS hamsters dosed 18 days; p<0.01
# Description: Tissue samples were harvested from hamsters in the above-described 18-day experiment to determine the concentrations of ARI-001 in both liver and adipose tissue. Briefly, liver and adipose samples were harvested at the termination of the experiment; the samples were flash frozen in liquid nitrogen and then stored at −80° C. until used for analysis. To prepare for analysis, a sample of liver was excised from the frozen mass, weighed, and homogenized with a tissue grinder followed by sonication in buffer. The solid materials were then removed by centrifugation. To prepare for LC-MS analysis, the homogenate was then treated to the same preparation technique described for plasma preparation (vide supra). A sample of adipose was excised from the frozen mass, and transferred to a mortar and pestle cooled with liquid nitrogen. During grinding, liquid nitrogen was added to ensure the sample of adipose remained solid. The ground sample was transferred to a tared tube to weigh total sample. This ground sample was extracted with methanol, and this compound-containing methanol was separated from lipid by cooling to −20° C. […]
# FIG. 8 graphs the correlation between concentrations of ARI-001 in plasma versus liver (left), and in plasma versus adipose (right). […] Pearson r was determined using all data points illustrated. P-value was determined for a 2-tailed t-test using all data points illustrated.
# [6] = Stability of ARI-001 stored at 50° C., purity by LC-MS; assay type: physicochemical
# Description: ARI-001 was synthesized as described above. Purity was determined independently before use in experiments by examination via liquid chromatography-mass spectroscopy (LC-MS). A sample of material was dissolved in water/acetonitrile and injected onto a Discovery C-18 reverse phase column. The mobile phase began as 2%:98% acetonitrile:water, which was held for three minutes, after which a linear gradient was started that ran over 6 minutes, increasing the percent of acetonitrile until a final ratio of 98%:2% acetonitrile:water was reached. This final ratio was held for 3 minutes. The major peak was identified as ARI-001.
# Stability was determined by storing ARI-001 under 50° C. with no specified humidity requirement. At various time points over the course of 3 months (90 days), a small sample (<5 mg) of ARI-001 was collected for analysis using LC-MS under the same conditions as used for purity determination (vide supra).
# [7] = Once daily vs twice daily dosing of ARI-001, plasma lipids in animal models; assay type: in vivo; details: ARI-001 given once daily
# high fat-fed hamsters [8] = experiment: Liver function tests (AST, ALT) in plasma of high fat-fed hamsters dosed 18 days; assay type: in vivo, Golden Syrian hamster
# Description: These animals were dosed for 18 consecutive days, while being on a HF/HS diet for a total of nearly 5 weeks. We also examined the glucose levels in the plasma of these animals. For pharmacokinetic studies, we utilized wild type mice for both single and repeated administration study. Finally, pharmacokinetic studies were corroborated by data from single and repeated administration to monkeys. […] AST and ALT were measured using commercially available kits (Bio-Quant Diagnostic Kits, San Diego, Calif.). As expected, AST and ALT values from untreated hamsters (vehicle group) were very high, as the high fat diet leads to hepatomegaly and fatty liver. This disease state is reflected in the elevated AST and ALT levels.
# [9] = Multiple administration pharmacokinetic study of ARI-001 in wild type mice; assay type: in vivo, C57BL/6 mice; details: 996, 1493, 2240, 3360 mg/kg oral gavage daily, 30 days
# Description: Wild type C57BL/6 mice were dosed with ARI-001 in solution via oral gavage daily for 30 consecutive days. Over the course of five 24-hour periods, blood was collected, and the resultant plasma was analyzed for concentrations of ARI-001. Four doses were used: 996 mg/kg, 1493 mg/kg, 2240 mg/kg, and 3360 mg/kg. […] However, these values were time-independent, as there was no trend observed between these parameters and days of administration. See FIGS. 15A-15D and FIGS. 16A-16B.
Cmax value day 7 versus day 1 [3],concentrations 24 hours after the first or the last doses [3],plasma concentrations on day 1 versus day 7 [3],remaining plasma concentration of ARI-001 at the 24 hour timepoint [4],correlation between concentrations of ARI-001 in plasma versus adipose [5],correlation between concentrations of ARI-001 in plasma versus liver [5],purity of ARI-001 on storage ([6]; after 90 days) [%],"purity of ARI-001 on storage ([6]; unregulated humidity, 65 days) [%]",Cmax levels and total 24-hour exposure (AUC) vs days of administration [9],Cmax levels and total 24-hour exposure (AUC) vs dose [9],SMILES,Cmax [1],glucose levels in comparison to the vehicle cohort (high fat-fed hamsters [2]),"changes in plasma lipids, once daily vs same total dose twice daily [7]",AST in plasma vs vehicle (high fat-fed hamsters [8]; ARI-001 2240 mg/kg),"ALT in plasma vs vehicle (high fat-fed hamsters [8]; ARI-001 1120 and 2240 mg/kg, dose-dependent)"
,,,,,,,,,,"O=C(O)c1cccnc1 [Niacin, nicotinic acid]","about 30,000 ng/mL",,,,
higher on day 7 than on day 1,essentially identical,very little difference,undetectable,highly statistically significant,highly statistically significant,95.9,98.9,time-independent,dose-dependent,O=C(O)c1ccc(CCN2CCOCC2)nc1 [ARI-001],,neither dose of ARI-001 produced any significant change,greater than or equal to the lipid altering effects observed with the same total dose of ARI-001 given twice daily,drastically reduced,similarly reduced
